{
  "source": "patent US7326542B2",
  "about": "“Compositions and methods for regulating bacterial pathogenesis” (priority 1998, dated 2008)",
  "key": {"[1]": {"system": "V. harveyi reporter strain BB170 (Sensor 1-, Sensor 2+)", "type": "cell-based, Vibrio harveyi", "protocol": "Cell-free culture fluids from E. coli, S. typhimurium and V. harveyi strains were tested for the presence of signaling substances that could induce luminescence in the V. harveyi reporter strain BB170 or BB886. […] The microtiter dishes were shaken in a rotary shaker at 175 rpm at 30° C.\nThe cell density was measured by diluting the same aliquots of cells used for measuring luminescence, spreading the dilutions onto solid LM medium, incubating the plates overnight at 30° C., and counting the resulting colonies the following day. […] Cell-free culture supernatants from V. harveyi or S. typhimurium strains were added to a final concentration of 10% (v/v) at the time of the first measurement. In control experiments, 10% (v/v) of AB medium, LB medium or LB medium containing 0.5% glucose was added instead of cell-free culture fluids."}, "[2]": {"system": "ftsQ1p2p-lacZ fusion in E. coli MC4100/pMS207", "assay": "SdiA regulated ftsQ1p2p-lacZ reporter, galactosidase", "type": "cell-based", "conditions": "10% (v/v) 0.4 M NaCl osmotic shock fluids containing AI-2 activity, 2 h", "from_the_text": "Analysis of the effect of autoinducer on SdiA regulated gene expression. A sequence that includes the ftsQ1p and ftsQ2p promoters (Wang et al., 1991, supra) was amplified from E. coli MG1655 chromosomal DNA using the following primers: ftsQ1p, 5′-[…]-3′ (SEQ ID NO: 19); ftsQ2p, 5′-[…]-3′ (SEQ ID NO: 20). The amplified product contained both the ftsQ promoters and the first 14 codons of the ftsQ gene flanked by BamHI and Bg1II sites. The ftsQ1p2p PCR product was cloned into the BamHI site of vector pMLB 1034 (Silhavy et al., Experiments with Gene Fusions, Cold Spring Harbor Press, 1984) to generate a lacZ fusion that contained the promoters, ribosome binding site, and initiation codon of ftsQ. A correctly oriented clone, pMS207, and a clone containing the ftsQ1p2p insert in the opposite orientation, pMS209, were chosen for further analysis. Both inserts were sequenced to ensure that no errors were introduced during the PCR reaction.\nFor ftsQ regulation in E. coli, the plasmids pMS207 and pMS209 were transformed into E. coli strain MC4100 (Silhavy et al., 1984, supra), and the transformants were grown overnight in LB containing 100 mg/L ampicillin at 30° C. with aeration. For rck regulation, S. typhimurium strains BA1105 (rck::MudJ) and BA1305 (rck::MudJ sdiA) were grown overnight in LB containing 100 mg/L kanamycin at 30° C. with aeration. […]"}, "[3]": {"system": "rck::MudJ fusion in S. typhimurium (sdiA+ and sdiA-)", "assay": "SdiA regulated rck::MudJ fusion, galactosidase", "type": "cell-based", "conditions": "addition of AI-2 from E. coli or S. typhimurium, 2 h", "protocol": "For ftsQ regulation in E. coli, the plasmids pMS207 and pMS209 were transformed into E. coli strain MC4100 (Silhavy et al., 1984, supra), and the transformants were grown overnight in LB containing 100 mg/L ampicillin at 30° C. with aeration. For rck regulation, S. typhimurium strains BA1105 (rck::MudJ) and BA1305 (rck::MudJ sdiA) were grown overnight in LB containing 100 mg/L kanamycin at 30° C. with aeration. The overnight cultures were diluted 20-fold into fresh medium and grown for an additional 4.5 h. At this time, each culture was divided into five identical aliquots and 10% (v/v) of one of the following was added to each aliquot: LB, 0.4 M NaCl, […] osmotic shock fluids from S. typhimurium LT2, E. coli 0157 or E. coli strain DH5 (negative control). The osmotic shock fluids were prepared as described above, following pre-growth of the S. typhimurium LT2 and E. coli in LB containing 0.5% glucose for 6 h. The cell suspensions were incubated at 30° C. for 2 h, after which standard-galactosidase reactions were performed on the samples (Miller, A Short Course in Bacterial Genetics, Cold Spring Harbor Laboratory Press, 1992)."}, "[4]": {"assay": "Stability of the signaling activity (acid, base, heat, storage)", "type": "physicochemical"}, "[5]": {"system": "V. harveyi luxN, luxS double mutant reporter strain", "assay": "V. harveyi luxN, luxS double mutant reporter strain luminescence assay", "type": "cell-based, Vibrio harveyi", "conditions": "AI-1 from MM30 and AI-2 from BB152 culture fluids", "protocol": "Verification that the luxN, luxS Double Mutant Responds to AI-2. […] This was verified in a luminescence assay for response to V. harveyi AI-1 and AI-2. V. harveyi strain MM30 (luxS::Tn5) which is phenotypically AI-1^+, AI-2^−, and V. harveyi strain BB152 (luxM::Tn5) which is phenotypically AI-1^−, AI-2^+ were used as the sources of AI-1 and AI-2 respectively. The AI-1 and AI-2 present in culture fluids of these strains was tested for stimulation of light production of the V. harveyi luxN, luxS double mutant reporter strain. In this assay, autoinducer preparations from MM30, BB152 or sterile medium controls were added to the wells of microtiter plates, followed by the addition of the V. harveyi reporter strain. The resulting light production was monitored using a liquid scintillation counter in the chemiluminescence mode. Maximal stimulation of light production in the V. harveyi luxN, luxS reporter strain was compared to that produced by the Sensor 1^+, Sensor 2^− V. harveyi strain BB886 and the Sensor 1^−, Sensor 2^+ V. harveyi strain BB170. These two V. harveyi strains are routinely used in this assay as reporters of AI-1 and AI-2 activity respectively."}, "[6]": {"system": "V. harveyi reporter strain BB886 (Sensor 1+, Sensor 2-)", "assay": "V. harveyi BB886 luminescence bioassay (AI-1 / Signaling System 1)", "type": "cell-based, Vibrio harveyi", "conditions": "non self-stimulating sensor-1+, sensor-2- mutant (BB886)", "protocol": "Assay for production of signaling compounds. Cell-free culture fluids from E. coli, S. typhimurium and V. harveyi strains were tested for the presence of signaling substances that could induce luminescence in the V. harveyi reporter strain BB170 or BB886. In the assays, 10 1 of cell-free culture fluids from E. coli AB1157, E. coli DH5, and S. typhimurium LT2 strains grown and harvested as described above were added to 96-well microtiter dishes. The V. harveyi reporter strain BB170 or BB886 was grown for 16 h at 30° C. with aeration in AB medium, diluted 1:5000 into fresh AB medium, and 90 1 of the diluted cells were added to the wells containing the E. coli and S. typhimurium cell-free culture fluids. Positive control wells contained 10 1 of cell-free culture fluid from strain V. harveyi BB152 (Autoinducer-1^−, Autoinducer-2^+) or V. harveyi BB 120 (Autoinducer-1^+, Autoinducer-2^+). Negative control wells contained 10 1 of sterile growth medium. […] Every hour, light production was measured using a Wallac Model 1450 Microbeta Plus liquid scintillation counter in the chemiluminescence mode. The V. harveyi cell density was measured by diluting the same aliquots of cells used for measuring luminescence, spreading the dilutions onto solid LM medium (Bassler et al., 1993, supra), incubating the plates overnight at 30C., and counting the resulting colonies the following day. […]"}},
  "note": "Read-outs that look alike come from different tables or passages of the source.",
  "data": [
    {"smiles": "CC(=O)C(=O)C(O)CO", "note": "(stereo not drawn) [AI-2, 4,5-dihydroxy-2,3-pentanedione]", "values": [
      {"measurement": "stimulation in light production by AI-2 produced in vitro", "setting": "[1]; dialyzed LuxS- cell extract + SAM + LuxS protein, 60 min, material with MW<5000", "result": "over 500 fold"},
      {"measurement": "change of galactosidase activity of ftsQ1p2p-lacZ fusion", "setting": "[2]", "result": "did not change"},
      {"measurement": "change in galactosidase production of rck::MudJ", "setting": "[3]", "result": "No change"},
      {"measurement": "acid and base stability of the activity", "setting": "[4]", "result": "acid stable and base labile"},
      {"measurement": "heat resistance of the activity", "setting": "[4]", "result": "heat resistant to about 80 but not 100 °C"},
      {"measurement": "acid and base stability of the activity", "setting": "[4]; listed as signaling activity", "result": "acid stabile and base labile"},
      {"measurement": "heat resistance of the activity", "setting": "[4]; listed as signaling activity", "result": "heat resistant to 80 but not 100 °C"},
      {"measurement": "acid and base stability of the activity", "setting": "[4]; listed as signaling compound", "result": "acid stable and base labile"},
      {"measurement": "heat resistance of the activity", "setting": "[4]; listed as signaling compound", "result": "heat resistant to 80 °C but not 100 °C"},
      {"measurement": "light production in response to exogenous autoinducer", "setting": "[5]", "result": "stimulated to produce light"}
    ]},
    {"smiles": "C[C@@H](O)CC(=O)N[C@H]1CCOC1=O", "note": "[AI-1, N-(3-hydroxybutanoyl)-L-homoserine lactone, reference compound]", "values": [
      {"measurement": "lowest concentration the assay was sensitive to", "setting": "[6]", "result": 100, "unit": "nM"},
      {"measurement": "light production in response to exogenous autoinducer", "setting": "[5]", "result": "not"}
    ]},
    {"smiles": "N[C@H]1CCOC1=O", "note": "[homoserine lactone]", "values": [
      {"measurement": "activity of candidates for the signal in inducing luminescence", "setting": "[1]", "result": "None of these compounds has activity"}
    ]},
    {"smiles": "O=C(O)CCC(=O)C(=O)O", "note": "[-ketoglutarate]", "values": [
      {"measurement": "activity of candidates for the signal in inducing luminescence", "setting": "[1]", "result": "None of these compounds has activity"}
    ]},
    {"smiles": "CC(=O)O", "note": "[acetate]", "values": [
      {"measurement": "activity of candidates for the signal in inducing luminescence", "setting": "[1]", "result": "None of these compounds has activity"}
    ]}
  ]
}
